Key:
[1] = biological target: T1, A disintegrin and metalloproteinase with thrombospondin motifs 4 (Homo sapiens, UniProt O75173); test: Inhibition of human ADAMTS-4 using VQTVTWPDMELPLPRNITEGEARGSVILTVKPIFEVSPSPLKG peptide substrate by AlphaScreen assay
T1 sequence (O75173 whole entry): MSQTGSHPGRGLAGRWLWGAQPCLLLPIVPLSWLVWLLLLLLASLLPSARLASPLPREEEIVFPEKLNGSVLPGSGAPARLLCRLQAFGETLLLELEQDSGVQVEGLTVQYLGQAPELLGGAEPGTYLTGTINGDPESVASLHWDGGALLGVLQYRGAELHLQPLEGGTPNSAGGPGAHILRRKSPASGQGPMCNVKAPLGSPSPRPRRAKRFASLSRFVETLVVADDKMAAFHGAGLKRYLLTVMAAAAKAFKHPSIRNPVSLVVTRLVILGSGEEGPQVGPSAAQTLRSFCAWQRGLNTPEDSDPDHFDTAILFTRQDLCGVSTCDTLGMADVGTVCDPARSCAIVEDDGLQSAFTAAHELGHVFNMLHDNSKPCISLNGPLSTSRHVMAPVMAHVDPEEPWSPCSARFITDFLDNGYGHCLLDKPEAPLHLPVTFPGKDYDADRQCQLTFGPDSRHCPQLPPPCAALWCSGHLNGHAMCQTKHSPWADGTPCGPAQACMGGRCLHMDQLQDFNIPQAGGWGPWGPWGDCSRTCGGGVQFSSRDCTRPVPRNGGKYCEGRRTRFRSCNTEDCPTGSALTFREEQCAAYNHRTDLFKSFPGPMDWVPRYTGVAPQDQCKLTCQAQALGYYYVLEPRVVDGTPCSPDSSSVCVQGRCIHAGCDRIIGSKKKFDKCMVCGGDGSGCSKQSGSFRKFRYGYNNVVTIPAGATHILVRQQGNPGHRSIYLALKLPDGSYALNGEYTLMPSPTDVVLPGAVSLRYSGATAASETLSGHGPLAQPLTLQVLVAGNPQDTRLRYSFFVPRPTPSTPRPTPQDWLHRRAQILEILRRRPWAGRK

[2] = Plasma concentration in rat at 10 mg/kg, po after 2 hrs; format: ADME, organism-based; set-up: dose 10 mg/kg, route oral
[3] = biological target: T2, A disintegrin and metalloproteinase with thrombospondin motifs 5 (Homo sapiens, UniProt Q9UNA0); test: Inhibition of human ADAMTS-5 using VQTVTWPDMELPLPRNITEGEARGSVILTVKPIFEVSPSPLKG peptide substrate by AlphaScreen assay
T2 sequence (Q9UNA0 whole entry): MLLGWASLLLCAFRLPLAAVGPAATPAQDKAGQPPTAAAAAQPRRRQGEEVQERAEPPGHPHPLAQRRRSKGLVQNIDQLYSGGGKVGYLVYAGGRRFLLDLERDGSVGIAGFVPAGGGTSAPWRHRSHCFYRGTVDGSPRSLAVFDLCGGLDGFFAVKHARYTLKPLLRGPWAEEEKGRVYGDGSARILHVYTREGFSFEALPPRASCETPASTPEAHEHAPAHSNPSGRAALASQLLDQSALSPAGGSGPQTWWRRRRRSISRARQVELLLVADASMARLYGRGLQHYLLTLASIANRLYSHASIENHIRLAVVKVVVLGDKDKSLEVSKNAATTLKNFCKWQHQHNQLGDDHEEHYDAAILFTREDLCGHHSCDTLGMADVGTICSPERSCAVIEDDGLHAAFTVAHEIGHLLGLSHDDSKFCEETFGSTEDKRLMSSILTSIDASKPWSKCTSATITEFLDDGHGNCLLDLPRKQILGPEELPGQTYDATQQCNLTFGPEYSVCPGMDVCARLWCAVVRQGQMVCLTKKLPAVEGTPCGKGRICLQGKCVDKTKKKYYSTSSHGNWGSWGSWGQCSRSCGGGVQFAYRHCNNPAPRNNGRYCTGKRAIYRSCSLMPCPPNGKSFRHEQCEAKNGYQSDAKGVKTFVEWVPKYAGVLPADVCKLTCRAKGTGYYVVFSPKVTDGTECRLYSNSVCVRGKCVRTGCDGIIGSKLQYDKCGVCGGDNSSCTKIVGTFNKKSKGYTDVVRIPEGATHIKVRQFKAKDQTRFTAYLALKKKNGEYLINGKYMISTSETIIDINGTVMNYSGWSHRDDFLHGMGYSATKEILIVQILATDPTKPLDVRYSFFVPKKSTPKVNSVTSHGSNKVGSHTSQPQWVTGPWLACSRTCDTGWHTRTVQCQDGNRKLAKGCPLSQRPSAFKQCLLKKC

[4] = biological target: Matrix metalloproteinase-14 (Homo sapiens, UniProt P50281); test: Inhibition of human MMP14 using Mca-PQG1 peptide substrate assessed as substrate cleavage after 2 to 4 hrs
[5] = biological target: Stromelysin-1 (Homo sapiens, UniProt P08254); test: Inhibition of human MMP3 using Mca-PQG1 peptide substrate assessed as substrate cleavage after 2 to 4 hrs
[6] = Plasma concentration in rat at 10 mg/kg, po after 8 hrs; format: ADME, organism-based; set-up: dose 10 mg/kg, route oral
[7] = biological target: Disintegrin and metalloproteinase domain-containing protein 17 (Homo sapiens, UniProt P78536); test: Inhibition of human TACE using Mca-PQG1 peptide substrate assessed as substrate cleavage after 2 to 4 hrs
[8] = biological target: T2, A disintegrin and metalloproteinase with thrombospondin motifs 5; test: Inhibition of human ADAMTS-5 using VQTVTWPDMELPLPRNITEGEARGSVILTVKPIFEVSPSPLKG peptide substrate by AlphaScreen assay in presence of 50% rat plasma
[9] = biological target: Collagenase 3 (Homo sapiens, UniProt P45452); test: Inhibition of human MMP13 using Mca-PQG1 peptide substrate assessed as substrate cleavage after 2 to 4 hrs
[10] = biological target: 72 kDa type IV collagenase (Homo sapiens, UniProt P08253); test: Inhibition of human MMP2 using Mca-PQG1 peptide substrate assessed as substrate cleavage after 2 to 4 hrs
[11] = Clearance in Sprague-Dawley rat; format: ADME, organism-based; conditions: in vivo
[12] = Cmax in Sprague-Dawley rat at 10 mg/kg, po; format: ADME, organism-based; set-up: dose 10 mg/kg, route oral; conditions: in vivo
[13] = AUC in Sprague-Dawley rat at 10 mg/kg, po; format: ADME, organism-based; set-up: dose 10 mg/kg, route oral; conditions: plasma
[14] = Oral bioavailability in Sprague-Dawley rat; format: ADME, organism-based; conditions: in vivo
[15] = Metabolic stability in rat liver microsomes assessed as compound degradation after 30 mins by LC-MS analysis; format: ADME, Microsome; conditions: read-out: Drug degradation
[16] = species: Rattus norvegicus; test: Reduction in meniscal tear-induced osteoarthritis total joint score in chronic BID Lewis rat surgical model; format: functional, organism-based
[17] = system: Rattus norvegicus; test: Reduction in ADAMTS-4/ADAMTS-5-mediated aggrecan cleavage products in po dosed Lewis rat MIA model assessed as aggrecanase-cleaved fragments treatment starting from day 3 and single dose given on day 7 followed by animal sacrificed 4 hrs later by NITEGE sandwich ELISA assay; format: functional
[18] = biological target: Cytochrome P450 2C9 (Homo sapiens, UniProt P11712); test: Inhibition of human CYP2C9; format: ADME
[19] = biological target: Cytochrome P450 3A4 (Homo sapiens, UniProt P08684); test: Inhibition of human CYP3A4; format: ADME
[20] = Half life in Sprague-Dawley rat at 10 mg/kg, po; format: ADME, organism-based; set-up: dose 10 mg/kg, route oral; conditions: in vivo
[21] = Metabolic stability in human liver microsomes assessed as compound degradation after 30 mins by LC-MS analysis; format: ADME, Microsome; conditions: read-out: Drug degradation
[22] = Tmax in Sprague-Dawley rat at 10 mg/kg, po; format: ADME, organism-based; set-up: dose 10 mg/kg, route oral; conditions: in vivo
[23] = biological target: Cytochrome P450 2D6 (Homo sapiens, UniProt P10635); test: Inhibition of human CYP2D6; format: ADME
Cytochrome P450 2D6, sequence (P10635 whole entry): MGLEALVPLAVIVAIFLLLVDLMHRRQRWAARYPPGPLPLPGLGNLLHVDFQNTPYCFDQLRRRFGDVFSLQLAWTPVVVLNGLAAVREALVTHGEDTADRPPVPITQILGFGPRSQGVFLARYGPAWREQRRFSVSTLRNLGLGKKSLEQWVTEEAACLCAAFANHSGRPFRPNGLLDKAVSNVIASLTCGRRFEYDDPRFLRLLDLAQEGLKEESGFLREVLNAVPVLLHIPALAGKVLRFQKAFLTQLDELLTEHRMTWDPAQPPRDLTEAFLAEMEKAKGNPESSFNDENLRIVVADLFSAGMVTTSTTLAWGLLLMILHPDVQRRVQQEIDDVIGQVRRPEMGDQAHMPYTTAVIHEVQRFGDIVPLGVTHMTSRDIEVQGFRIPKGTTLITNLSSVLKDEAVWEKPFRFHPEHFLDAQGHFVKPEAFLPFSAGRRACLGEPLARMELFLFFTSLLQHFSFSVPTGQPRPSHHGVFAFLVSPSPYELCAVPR

72 kDa type IV collagenase, sequence (P08253 whole entry): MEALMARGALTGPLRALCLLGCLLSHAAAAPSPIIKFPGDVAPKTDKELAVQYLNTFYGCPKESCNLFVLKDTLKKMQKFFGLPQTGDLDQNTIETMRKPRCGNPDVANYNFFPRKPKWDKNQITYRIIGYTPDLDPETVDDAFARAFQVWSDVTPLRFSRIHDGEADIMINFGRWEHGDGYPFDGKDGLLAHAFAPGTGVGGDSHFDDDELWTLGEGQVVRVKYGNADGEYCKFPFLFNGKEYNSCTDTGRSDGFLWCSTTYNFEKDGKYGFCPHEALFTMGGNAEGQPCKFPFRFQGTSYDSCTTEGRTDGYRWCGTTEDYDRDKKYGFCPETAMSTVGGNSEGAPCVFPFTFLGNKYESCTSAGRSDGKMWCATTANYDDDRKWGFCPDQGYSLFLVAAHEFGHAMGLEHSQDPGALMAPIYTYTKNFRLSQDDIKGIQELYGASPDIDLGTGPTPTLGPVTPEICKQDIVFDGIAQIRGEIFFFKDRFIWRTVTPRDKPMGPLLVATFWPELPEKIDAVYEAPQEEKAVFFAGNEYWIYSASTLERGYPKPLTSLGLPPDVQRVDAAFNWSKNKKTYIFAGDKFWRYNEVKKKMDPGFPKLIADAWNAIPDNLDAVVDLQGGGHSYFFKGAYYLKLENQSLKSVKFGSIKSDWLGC
Disintegrin and metalloproteinase domain-containing protein 17, sequence (P78536 whole entry, the tested form may be a part): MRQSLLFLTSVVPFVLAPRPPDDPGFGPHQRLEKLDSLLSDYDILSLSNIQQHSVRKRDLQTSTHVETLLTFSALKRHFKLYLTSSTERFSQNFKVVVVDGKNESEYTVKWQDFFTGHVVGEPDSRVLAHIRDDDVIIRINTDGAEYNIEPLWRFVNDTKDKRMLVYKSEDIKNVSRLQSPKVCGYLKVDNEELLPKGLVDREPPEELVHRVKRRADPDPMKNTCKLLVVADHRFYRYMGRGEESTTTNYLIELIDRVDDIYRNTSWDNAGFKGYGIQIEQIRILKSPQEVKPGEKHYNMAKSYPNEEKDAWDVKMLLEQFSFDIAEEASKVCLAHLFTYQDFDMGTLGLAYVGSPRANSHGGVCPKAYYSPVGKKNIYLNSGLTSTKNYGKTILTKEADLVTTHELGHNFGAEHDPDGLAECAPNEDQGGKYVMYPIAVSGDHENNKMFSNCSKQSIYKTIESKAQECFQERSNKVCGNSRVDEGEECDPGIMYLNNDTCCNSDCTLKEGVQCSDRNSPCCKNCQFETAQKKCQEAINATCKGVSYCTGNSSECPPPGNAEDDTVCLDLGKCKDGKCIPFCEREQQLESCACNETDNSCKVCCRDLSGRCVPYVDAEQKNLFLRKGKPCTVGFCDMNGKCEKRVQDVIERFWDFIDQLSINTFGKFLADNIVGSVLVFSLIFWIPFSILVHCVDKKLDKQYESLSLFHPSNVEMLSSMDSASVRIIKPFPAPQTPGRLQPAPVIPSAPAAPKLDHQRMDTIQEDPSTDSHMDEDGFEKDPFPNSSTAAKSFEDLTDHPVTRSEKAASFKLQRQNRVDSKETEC
Stromelysin-1, sequence (P08254 whole entry): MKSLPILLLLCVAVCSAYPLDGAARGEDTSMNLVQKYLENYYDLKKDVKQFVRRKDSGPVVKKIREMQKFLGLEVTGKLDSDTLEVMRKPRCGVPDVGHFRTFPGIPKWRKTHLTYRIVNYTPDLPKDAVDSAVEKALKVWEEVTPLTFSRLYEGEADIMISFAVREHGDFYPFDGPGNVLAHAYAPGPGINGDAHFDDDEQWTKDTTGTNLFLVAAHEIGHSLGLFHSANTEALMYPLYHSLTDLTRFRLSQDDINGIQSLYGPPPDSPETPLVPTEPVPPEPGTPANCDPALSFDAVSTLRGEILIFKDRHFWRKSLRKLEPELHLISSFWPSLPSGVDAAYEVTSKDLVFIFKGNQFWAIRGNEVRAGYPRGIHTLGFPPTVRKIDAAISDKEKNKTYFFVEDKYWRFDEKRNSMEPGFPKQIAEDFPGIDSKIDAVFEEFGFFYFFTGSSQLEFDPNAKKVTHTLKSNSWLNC
Cytochrome P450 2C9, sequence (P11712 whole entry): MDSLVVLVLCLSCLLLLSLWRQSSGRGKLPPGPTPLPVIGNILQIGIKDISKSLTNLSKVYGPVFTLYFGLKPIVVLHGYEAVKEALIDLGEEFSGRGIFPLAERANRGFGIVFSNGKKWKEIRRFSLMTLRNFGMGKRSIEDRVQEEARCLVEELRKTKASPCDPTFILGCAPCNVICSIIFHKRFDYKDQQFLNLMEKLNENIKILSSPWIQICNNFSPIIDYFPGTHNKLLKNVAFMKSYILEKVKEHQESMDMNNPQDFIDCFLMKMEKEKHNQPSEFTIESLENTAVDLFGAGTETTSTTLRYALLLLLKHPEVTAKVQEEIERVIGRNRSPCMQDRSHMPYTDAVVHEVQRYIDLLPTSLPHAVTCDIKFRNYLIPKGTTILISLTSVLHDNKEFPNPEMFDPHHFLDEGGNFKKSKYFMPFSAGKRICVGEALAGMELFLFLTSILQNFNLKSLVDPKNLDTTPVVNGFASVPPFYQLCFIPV
Cytochrome P450 3A4, sequence (P08684 whole entry): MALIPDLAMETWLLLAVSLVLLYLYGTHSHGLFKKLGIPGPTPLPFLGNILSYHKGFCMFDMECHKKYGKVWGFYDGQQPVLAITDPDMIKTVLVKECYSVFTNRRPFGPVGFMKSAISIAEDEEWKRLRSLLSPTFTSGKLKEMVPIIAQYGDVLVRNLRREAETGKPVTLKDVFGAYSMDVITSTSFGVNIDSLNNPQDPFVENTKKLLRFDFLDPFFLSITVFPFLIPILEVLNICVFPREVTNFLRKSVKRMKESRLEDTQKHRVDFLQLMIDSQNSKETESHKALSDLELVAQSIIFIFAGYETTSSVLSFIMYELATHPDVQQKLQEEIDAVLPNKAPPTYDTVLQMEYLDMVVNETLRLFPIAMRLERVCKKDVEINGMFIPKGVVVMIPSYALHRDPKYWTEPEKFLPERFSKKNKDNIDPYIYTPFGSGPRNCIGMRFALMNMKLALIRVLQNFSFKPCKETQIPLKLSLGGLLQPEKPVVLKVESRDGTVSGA

Compound	IC50 [1] [nM]	concentration at 2 h [2] [ng/mL]	IC50 [3] [nM]	IC50 [4] [nM]	IC50 [5] [nM]	concentration at 8 h [6] [ng/mL]	IC50 [7] [nM]	IC50 [8] [nM]	IC50 [9] [nM]	IC50 [10] [nM]	clearance [11] [mL/min/kg]	Cmax [12] [ng/mL]	AUC [13] [ng·h/mL]	bioavailability [14] [%]	metabolised at 0.5 h [15] [%]	half-life [20] [h]	metabolised at 0.5 h [21] [%]	Tmax [22] [h]	further results
C[C@@]1(O)CCCN(S(=O)(=O)c2ccc(OCc3ccc(F)cc3Cl)cc2)[C@H]1C(=O)NO	1	1900	1	150	3	840	7	18	1	5									
C[C@]1(CNC(=O)COc2ccc(Cl)cc2)NC(=O)NC1=O	74	430	350	> 50000	50000	50		620	7000	24000									
Cn1ccnc1[C@]1(CNC(=O)c2cc3cc(C(F)(F)F)ccc3o2)NC(=O)NC1=O	4	1100	4	86000	69000	90	10000	35	30000	11000	4.8	3200	8500	25	7	4.3	< 5	1.6	inhibition [16]: Dose-dependent effect; ED50 [17]: 30 mg/kg; inhibition (INH) [18]: < 5%; inhibition (INH) [19]: < 5%; inhibition (INH) [23]: < 5%
O=C1NC(=O)[C@](CNC(=O)c2cc3cc(Cl)ccc3o2)(c2ccccc2)N1	12	< 200	22	3500	3000		5400	420	720	2100									
Cn1nccc1[C@]1(CNC(=O)c2cc3cc(Cl)ccc3o2)NC(=O)NC1=O	22		19	8600	64000			530	4700	7100									
Cc1cccnc1[C@]1(CNC(=O)c2cc3cc(Cl)ccc3o2)NC(=O)NC1=O (racemic)	17		19	18000	20000			1700	3100	6100									
O=C1NC(=O)[C@](CNC(=O)c2cc3cc(Cl)ccc3o2)(c2nccs2)N1		4300				1300					4	6900	28000	72	16	3.2	16	0.33	
Cn1ccnc1[C@]1(CNC(=O)c2cc3cc(Cl)ccc3o2)NC(=O)NC1=O	5	2200	9	> 100000	38000	80		110	4200	7500	13	4100	8100	58	13	4.2	17	0.33	ED50 [17]: 75 mg/kg; inhibition (INH) [18]: < 5%; inhibition (INH) [19]: < 5%; inhibition (INH) [23]: < 5%
C[C@]1(CNC(=O)c2cc3cc(Cl)ccc3o2)NC(=O)NC1=O (racemic)	110		150					2400											
